The values that follow are results of earlier work, collected in article PMC10011554, “BET inhibitor trotabresib in heavily pretreated patients with solid tumors and diffuse large B-cell lymphomas” (Nature Communications, 2023).

Where two headings read alike, the source gives them in different places.

Data set [1] concerns basal cell carcinoma. As to conditions: cited from earlier work.
For data set [2] the following is noted: cited from earlier work.
The subject of data set [3] is U-2932 (ABC DLBCL). More on the design: method as in Report CC-90010-Pharm-1018. As to conditions: U-2932, Table 2, ref Report CC-90010-Pharm-1018; read-out: absolute IC50, proliferation; cited from earlier work.
Data set [4] concerns WSU-DLCL2 (GCB DLBCL). Set-up: method as in Report CC-90010-Pharm-1018. As to conditions: WSU-DLCL2, Table 2, ref Report CC-90010-Pharm-1018; read-out: absolute IC50, proliferation; cited from earlier work.
In data set [5] the test system is SU-DHL-4 (GCB DLBCL). More on the design: method as in Report CC-90010-Pharm-1018. As to conditions: SU-DHL-4, Table 2, ref Report CC-90010-Pharm-1018; read-out: absolute IC50, proliferation; cited from earlier work.
Data set [6] concerns OCI-LY-10 (ABC DLBCL). More on the design: method as in Report CC-90010-Pharm-1018. As to conditions: OCI-LY-10, Table 2, ref Report CC-90010-Pharm-1018; read-out: absolute IC50, proliferation; cited from earlier work.
Data set [7] deals with OCI-LY-10 (DOX-R). More on the design: method as in Report CC-90010-Pharm-1018. As to conditions: Table 2, ref Report CC-90010-Pharm-1018, read-out: absolute IC50, proliferation; cited from earlier work.
In data set [8] the test system is U-2932 (DOX-R). More on the design: method as in Report CC-90010-Pharm-1018. As to conditions: Table 2, ref Report CC-90010-Pharm-1018, read-out: absolute IC50, proliferation; cited from earlier work.
Data set [9] deals with SU-DHL-4 (DOX-R). More on the design: method as in Report CC-90010-Pharm-1018. As to conditions: Table 2, ref Report CC-90010-Pharm-1018, read-out: absolute IC50, proliferation; cited from earlier work.
Data set [10] deals with WSU-DLCL2 (DOX-R). More on the design: method as in Report CC-90010-Pharm-1018. As to conditions: Table 2, ref Report CC-90010-Pharm-1018, read-out: absolute IC50, proliferation; cited from earlier work.
Data set [11] concerns GBM3 GBM PDX. Set-up: method as in Unpublished data from Celgene Corporation. As to conditions: GBM3, TMZ 50 mg/kg IP x 3 Q2 weeks alone, ref Unpublished data from Celgene Corporation; cited from earlier work.
The subject of data set [12] is relapsed or refractory lymphomas. As to conditions: cited from earlier work.
On the set-up of data set [13]: method as in Amorim, 2016. As to conditions: ref Amorim, 2016; cited from earlier work.
The mark [14] stands for this setting: ref ODOMZO European Public Assessment Report.

In the case of `CS(=O)(=O)c1ccc(C(=O)Nc2ccc(Cl)c(-c3ccccn3)c2)c(Cl)c1` [vismodegib], in data set [1] (locally advanced BCC, ref ERIVEDGE European Public Assessment Report), the response rate is reported as 42.9%. The “independently reviewed response rate” value in [1] (metastatic BCC, ref ERIVEDGE European Public Assessment Report) is 30.3%. In addition, in [1] (ref ERIVEDGE European Public Assessment Report), the “median duration of response” value was 7.6 months. For the same molecule, in data set [2] (at least 12 months follow up, ref Bassett-Seguin, 2015), the “subjects who withdrew from treatment due to adverse events” value was 36%.

Regarding `COc1cccc2c1C(=O)c1c(O)c3c(c(O)c1C2=O)C[C@@](O)(C(=O)CO)C[C@@H]3O[C@H]1C[C@H](N)[C@H](O)[C@H](C)O1` [Doxorubicin, reference compound], the IC50 is 20 nM in data set [3]; 10 nM in [4]; about 10 nM in [5]; 41 nM in data set [6]; 3660 nM in data set [7]; 1870 nM in data set [8]. Also, the IC50 was 3570 nM in data set [9] and 3270 nM in data set [10].

`Cn1nnc2c(C(N)=O)ncn2c1=O` [TMZ, temozolomide, reference compound]: the TGI in data set [11] is reported as 3%.

As to `Cc1noc2c1-c1ccccc1C(c1ccc(Cl)cc1)=N[C@H]2CC(N)=O` [CPI-0610], the objective responses in data set [12] (out of 64 relapsed or refractory lymphomas, ref Blum, 2018) is 5 patients.

Take `Cc1c(C(=O)Nc2ccc(N3C[C@@H](C)O[C@@H](C)C3)nc2)cccc1-c1ccc(OC(F)(F)F)cc1` [sonidegib]: the “independently reviewed response rate” value in data set [1] (locally advanced BCC, ref Migden, 2015a) is on record as 58%. Besides, the “LaBCC with investigator-assessed responses lasting at least six months” value in data set [1] (ref Migden, 2015a) is listed as 39%. Further, in data set [2] (setting [14]), the “subjects discontinued for adverse reactions” value is on record as 28% and the “subjects with dose adjustments for adverse reactions” value is on record as 32%.

`Cc1sc2c(c1C)C(c1ccc(Cl)cc1)=N[C@@H](CC(=O)NCCCN1CCN(C)CC1)c1nnc(C)n1-2` [RG6146]: the ORR in data set [12] (relapsed/refractory MYC-expressing DLBCL patients, ref Caimi, 2017) is 11%.

Take `Cc1sc2c(c1C)C(c1ccc(Cl)cc1)=N[C@@H](CC(=O)Nc1ccc(O)cc1)c1nnc(C)n1-2` [OTX-015]: in data set [13], the “Grade 3-4 thrombocytopenia” value is on record as 58%, the “median time to thrombocytopenia nadir (Grade 4) from starting treatment” value is on record as 18 days, the toxic effect anaemia was 91% and the toxic effect diarrhea is reported as 47%. In addition, in data set [13], the toxic effect fatigue was 27%, the toxic effect nausea is 24%, the toxic effect neutropenia is recorded as 51% and the toxic effect thrombocytopenia is recorded as 96%.
